Assay results: patent publication US8691977B2, “Certain chemical entities, compositions, and methods” (Neupharma, Inc., priority 2010, dated 2014)

system: A549 cells; assay: Inhibition of cell growth in tumor cells (MTT assay); format: cell-based; conditions: Homo sapiens, 72 h compound exposure
Procedure: Inhibition of cell growth by compounds was measured using MTT assay (Mosmann, T., Journal of Immunological Methods, 1983, 65, 55-63). Tumor cell lines were purchased from ATCC (American Type Culture Collection, Manassas, Va.). All cell lines were maintained in RPMI 1640 (Hyclone) supplemented with 10% fetal bovine serum (FBS, Hyclone), glutamine (2 mM, Hyclone), and antibiotics (penicillin 100 U/mL and streptomycin 50 μg/mL) at 37° C. in a humidified atmosphere of 5% CO2 in air. Taxol (positive control, Sigma) and compounds were dissolved in DMSO (Sigma), and the final concentration of DMSO in the medium was 1%. Tumor cells were plated in 96-well plates at densities from 4000 cells/well of a 96-well plate and allowed to adhere/grow for 24 h. They were then treated with various concentrations of drug for 72 h. 3-(4,5-Dimethylthiazol-2-yl)-2,5-diphenyltetrazolium bromide (MTT, Sigma) was used to determine the number of viable cells at the time of compound addition and the number of cells remaining after 72 h compound exposure. The number of cells remaining after 72 h was compared to the number of viable cells at the time of compound addition by measuring the absorbance at 570 nm, allowing for the calculation of growth inhibition.
All concentrations of compounds were tested in triplicate and controls were averaged over 4 wells. IC50 was calculated by plotting the concentration of compound vs the percentage of inhibition in treated wells using GraphPad Prism 5.

Row | IC50 | Compound
1 | 159 nM | CC1=C(O)C(=O)C=C2C1=CC=C1[C@@]2(C)CC[C@@]2(C)[C@@H]3C[C@](C)(CNC(=O)CN(C)C)CC[C@]3(C)CC[C@]12C [2-(dimethylamino)-N-(((2R,4aS,6aS,12bR,14aS,14bR)-10-hydroxy-2,4a,6a,9,12b,14a-hexamethyl-11-oxo-1,2,3,4,4a,5,6,6a,11,12b,13,14,14a,14b-tetradecahydropicen-2-yl)methyl)acetamide]
2 | 285 nM | CC1=C(O)C(=O)C=C2C1=CC=C1[C@@]2(C)CC[C@@]2(C)[C@@H]3C[C@](C)(CN(C)C)CC[C@]3(C)CC[C@]12C [(6bS,8aS,11R,12aR,12bS,14aR)-11-((dimethylamino)methyl)-3-hydroxy-4,6b,8a,11,12b,14a-hexamethyl-7,8,8a,9,10,11,12,12a,12b,13,14,14a-dodecahydropicen-2(6bH)-one]
3 | 498 nM | CC1=C(O)C(=O)C=C2C1=CC=C1[C@@]2(C)CC[C@@]2(C)[C@@H]3C[C@](C)(CN4CCCC4)CC[C@]3(C)CC[C@]12C [(6bS,8aS,11R,12aR,12bS,14aR)-3-hydroxy-4,6b,8a,11,12b,14a-hexamethyl-11-(pyrrolidin-1-ylmethyl)-7,8,8a,9,10,11,12,12a,12b,13,14,14a-dodecahydropicen-2(6bH)-one]
4 | 246 nM | CC1=C(O)C(=O)C=C2C1=CC=C1[C@@]2(C)CC[C@@]2(C)[C@@H]3C[C@](C)(CNC(=O)N4CCN(C)CC4)CC[C@]3(C)CC[C@]12C [N-(((2R,4aS,6aS,12bR,14aS,14bR)-10-hydroxy-2,4-a,6a,9,12b,14a-hexamethyl-11-oxo-1,2,3,4,4a,5,6,6a,11,12b,13,14,14a,14b-tetradecahydropicen-2-yl)methyl)-4-methylpiperazine-1-carboxamide]
5 | 523 nM | CC1=C(O)C(=O)C=C2C1=CC=C1[C@@]2(C)CC[C@@]2(C)[C@@H]3C[C@](C)(CN4CCOCC4)CC[C@]3(C)CC[C@]12C [(6bS,8aS,11R,12aR,12bS,14aR)-3-hydroxy-4,6b,8a,11,12b,14a-hexamethyl-11-(morpholinomethyl)-7,8,8a,9,10,11,12,12a,12b,13,14,14a-dodecahydropicen-2(6bH)-one]
6 | 358 nM | CC1=C(O)C(=O)C=C2C1=CC=C1[C@@]2(C)CC[C@@]2(C)[C@@H]3C[C@](C)(CNC(=O)N4CCOCC4)CC[C@]3(C)CC[C@]12C [N-(((2R,4aS,6aS,12bR,14aS,14bR)-10-hydroxy-2,4-a,6a,9,12b,14a-hexamethyl-11-oxo-1,2,3,4,4a,5,6,6a,11,12b,13,14,14a,14b-tetradecahydropicen-2-yl)methyl)morpholine-4-carboxamide]
7 | 737 nM | CC1=C(O)C(=O)C=C2C1=CC=C1[C@@]2(C)CC[C@@]2(C)[C@@H]3C[C@](C)(CNC(N)=O)CC[C@]3(C)CC[C@]12C [1-(((2R,4aS,6aS,12bR,14aS,14bR)-10-hydroxy-2,4-a,6a,9,12b,14a-hexamethyl-11-oxo-1,2,3,4,4a, 5,6,6a,11,12b,13,14,14a,14b-tetradecahydropicen-2-yl)methyl)urea]

Row | Compound | IC50
8 | CC1=C(O)C(=O)C=C2C1=CC=C1[C@@]2(C)CC[C@@]2(C)[C@@H]3C[C@](C)(CN)CC[C@]3(C)CC[C@]12C [(6bS,8aS,11R,12aR,12bS,14aR)-11-(aminomethyl)-3-hydroxy-4,6b,8a,11,12b,14a-hexamethyl-7,8,8a,9,10,11,12,12a,12b,13,14,14a-dodecahydropicen-2(6bH)-one] | 841 nM
9 | CC1=C(O)C(=O)C=C2C1=CC=C1[C@@]2(C)CC[C@@]2(C)[C@@H]3C[C@](C)(CO)CC[C@]3(C)CC[C@]12C [(6bS,8aS,11R,12aR,12bS,14aR)-3-hydroxy-11-(hydroxymethyl)-4,6b,8a,11,12b,14a-hexamethyl-7,8,8a,9,10,11,12,12a,12b,13,14,14a-dodecahydropicen-2(6bH)-one] | 624 nM
10 | COC(=O)OC[C@]1(C)CC[C@]2(C)CC[C@]3(C)C4=CC=C5C(=CC(=O)C(O)=C5C)[C@]4(C)CC[C@@]3(C)[C@@H]2C1 [((2R,4aS,6aS,12bR,14aS,14bR)-10-hydroxy-2,4-a,6a,9,12b,14a-hexamethyl-11-oxo-1,2,3,4,4a,5,6,6a,11,12b,13,14,14a,14b-tetradecahydropicen-2-yl)methyl methyl carbonate] | 393 nM

system: nitric oxide production; assay: not given; conditions: Jin et al., J Nat Prod 65: 89 (2002); read-out: IC50, inhibition of nitric oxide production; cited from earlier work

Row | Compound | IC50
11 | N=C(N)NN [aminoguanidine] | 16000 nM
